PubChem BioAssay AID489040 (Sanford-Burnham Center for Chemical Genomics, 2010)
Active and inactive are the calls of the source.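 How the source made its calls: active means mean half-maximal activating concentration from the dose-response fit at or below a set limit; inactive means the rest.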

Molecular target: CHO-XBP1 luciferase reporter, IRE1-XBP1 UPR activation
Test: activators of IRE1-XBP1 UPR arm, dose response, counter-screen for apoptotic UPR arm activators, CHO-XBP1 cells, luminescence (AID 489040);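 further: reporter read after six hours of compound exposure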

Row | Compound | EC50
1 | CCCCn1c(/C=N/Nc2nc3ccccc3[nH]2)nc2ccccc21 | > 80 µM (inactive)
2 | Oc1ccc(CN2CCc3ccccc3C2)c2cccnc12 | > 80 µM (inactive)
3 | CCc1nnc(NC(=O)c2nc(S(=O)(=O)Cc3ccc(C)cc3)ncc2Cl)s1 | > 80 µM (inactive)
4 | CC1(C)CC(=O)C2=C(C1)Oc1nc3ccccc3cc1C2C(C#N)C#N (stereo unspecified) | > 80 µM (inactive)
5 | Oc1cc(-c2ccncc2)cc2cccnc12 | > 80 µM (inactive)
6 | CCOc1cc(NC(=O)CCl)c(OCC)cc1NC(=O)CCl | > 80 µM (inactive)
7 | COc1ccc(OC)c(/C=C/C(=O)N2C(=O)c3cccc(N)c3C2=O)c1 | > 80 µM (inactive)
8 | Cc1cc(C(=O)CCl)c(C)n1-c1cccc(S(=O)(=O)N2CCOCC2)c1 | > 80 µM (inactive)
9 | CCc1ccc(N2C(=O)NC(=O)/C(=C\C=C\c3ccco3)C2=O)cc1 | > 80 µM (inactive)
10 | Cc1ccc(NC(=O)Cn2ncc(Cl)c(Cl)c2=O)cc1S(=O)(=O)N1CCCCC1 | > 80 µM (inactive)
11 | CCOC(=O)/C(=C\c1ccc(Cl)cc1)c1nc2sc(C)c(C)c2c(=O)[nH]1 | > 80 µM (inactive)
12 | COc1ccccc1-c1cc(C(F)(F)F)nc(S(C)(=O)=O)n1 | > 80 µM (inactive)
13 | CC1=NOC(=O)/C1=C\c1ccc(-c2ccc(Cl)cc2Cl)o1 | > 80 µM (inactive)
14 | O=C(Cn1ncc(Cl)c(Cl)c1=O)c1ccc2c(c1)OCCO2 | > 80 µM (inactive)
15 | Cc1cc(N2CCN(c3ccc([N+](=O)[O-])c4cccnc34)CC2)c2ccccc2n1 | > 80 µM (inactive)
16 | COc1ccc(N=Nc2ccc(O)c3ncccc23)cc1 | inactive
17 | CC(C)(C)N1CSC(=S)N(Cc2ccccc2)C1 | > 80 µM (inactive)
18 | C/C(=N\NC(=O)c1ccc(Cl)cc1)c1ccccn1 | > 80 µM (inactive)
19 | Clc1ccc(-n2nnnc2Sc2ncnc3sccc23)cc1 | > 80 µM (inactive)
20 | Cc1ccc(NN2C(=O)C=C(c3ccccc3)C2=O)cc1 | > 80 µM (inactive)
21 | O=C(/C(=C/c1cccc(Cl)c1)c1nc2ccccc2[nH]1)c1ccccc1 | > 80 µM (inactive)
22 | CCOc1cc(/C=C2\CN(CC)C/C(=C\c3ccc(O)c(OCC)c3)C2=O)ccc1O | > 80 µM (inactive)
23 | CCOc1ccc2c(c1)C(=NNC(=O)c1ccncc1)c1cc(OCC)ccc1-2 | > 80 µM (inactive)
24 | O=C1NC(=O)N(CCc2ccc(F)cc2)C(=O)/C1=C/C=C/c1ccccc1 | > 80 µM (inactive)

Row | Compound | EC50
25 | CCOC(=O)C1CCN(Cc2ccc(O)c3ncccc23)CC1 | > 80 µM (inactive)
26 | Cc1ccn2cc(-c3ccc(O)c(O)c3)nc2c1 | > 80 µM (inactive)
27 | CC1=C/C(=N\OC(=O)/C=C/c2ccccc2)C(C)=CC1=O | > 80 µM (inactive)
28 | S=C1SCN(CCN2CCOCC2)CN1Cc1ccccc1 | > 80 µM (inactive)
29 | CC(=O)c1ccc(NC(=O)COC(=O)c2ccccc2N=Nc2ccc(N(C)C)cc2)cc1 | 4.12 µM
30 | Oc1ccc(/C=N/Nc2nc(N3CCCC3)nc(N3CCCC3)n2)cc1O | 18 µM
31 | O=[N+]([O-])c1cc(O)c2ncccc2c1 | > 80 µM (inactive)
32 | Cc1ccc(F)cc1N=Cc1c(O)c2ccccc2oc1=O | > 80 µM (inactive)
33 | Nc1nc(CC(=O)CSc2ccc(Cl)cc2)nc(Nc2ccc(F)cc2)n1 | > 80 µM (inactive)
34 | COC(=O)C(=Cc1ccc(OCc2ccc([N+](=O)[O-])cc2)c(OC)c1)C(=O)OC | > 80 µM (inactive)
35 | CCOC(=O)C(=Cc1ccc(F)cc1)C(=O)OCC | > 80 µM (inactive)
36 | Brc1ccc(-c2ccc(/C=N/Nc3nncc(-c4ccccc4)n3)o2)cc1 | inactive
37 | O=C(NCc1cccnc1)/C(=C/c1ccc(-c2cccc(Cl)c2)o1)S(=O)(=O)c1ccccc1 | > 80 µM (inactive)
38 | O=C(NCCc1ccccc1)c1coc(=O)c(Br)c1 | > 80 µM (inactive)
39 | Cc1ccc(N2C(=O)NC(=O)/C(=C/C=C/c3ccco3)C2=O)cc1 | > 80 µM (inactive)
40 | Cc1cccc(OCCN2CSC(=S)N(C)C2)c1 | > 80 µM (inactive)
41 | CC(C)c1nnc(NC(=O)CCS(=O)(=O)c2nc(-c3cccs3)cc(C(F)(F)F)n2)s1 | > 80 µM (inactive)
42 | CCOC(=O)c1ccc(-c2ccc(/C=N/NC(=O)CN(c3cccc(C)c3)S(C)(=O)=O)o2)cc1 | inactive
43 | Cc1c(C#N)c(NC(=O)CCl)n(Cc2ccc(F)cc2)c1C | > 80 µM (inactive)
44 | COc1ccc(C(=O)Nc2ccccc2C(=O)N/N=C/c2ccccn2)cc1OC | > 80 µM (inactive)
45 | COc1ccc(/C=C/c2ccc3cccc(O)c3n2)c(OC)c1OC | > 80 µM (inactive)
46 | CC1=CC(C)(C)Nc2ccc(OC(=O)CN3C(=O)CCC3=O)cc21 | > 80 µM (inactive)
47 | O=C(O)CC1CCC(=C(Cl)Cl)C1 (stereo unspecified) | > 80 µM (inactive)
48 | O=C(/C(=C/c1ccc(Cl)cc1)c1nc2ccccc2[nH]1)c1cccs1 | > 80 µM (inactive)

Row | Compound | EC50
49 | O=C1C=CC(=O)C(C2=C3C(=O)N(CCc4ccccc4)CC(=O)N3CCC2)=C1 | > 80 µM (inactive)
50 | O=C(CCl)Nc1cccc(CP(=O)(c2ccccc2)c2ccccc2)c1 | > 80 µM (inactive)
51 | N#C/C(=C\c1ccc([N+](=O)[O-])o1)C(=O)Nc1ccc(F)cc1 | > 80 µM (inactive)
52 | COc1ccccc1-c1cc(C(F)(F)F)nc(S(=O)(=O)CCCC(=O)N2CCCCC2C)n1 (stereo unspecified) | > 80 µM (inactive)
53 | C/C(CC(C)(C)C1CCCCC1)=N\NC(N)=S | inactive
54 | COc1ccc(C(c2c(C)[nH]n(C(N)=S)c2=O)C(C#N)C#N)cc1 (stereo unspecified) | > 80 µM (inactive)
55 | N#CC1=C(N)OC2=C(CC/C2=C\c2ccccc2)C1c1ccccc1 (stereo unspecified) | > 80 µM (inactive)
56 | COc1ccc(NC(=O)c2sc3nc(N4CCOCC4)c4c(c3c2N)CC(C)(C)OC4)c(OC)c1 | > 80 µM (inactive)
57 | COc1ccc(-n2c(C)cc(C(=O)CCl)c2C)cc1 | 4.68 µM
58 | CN(c1ccccc1)S(=O)(=O)c1cccc(C(=O)NCCc2ccc(O)c(O)c2)c1 | 9.81 µM
59 | CN(C(=O)CSc1cc(C(=O)c2nccn2C)c2ccccc2n1)c1ccccc1 | > 80 µM (inactive)
60 | CCCOc1ccc(N2C(=O)CC(N(O)c3ccccc3)C2=O)cc1 (stereo unspecified) | > 80 µM (inactive)
61 | CCCCCC(=O)Nc1ccc(C(=O)N/N=C/c2ccc([N+](=O)[O-])cc2)cc1 | > 80 µM (inactive)
62 | Cc1ccc(NC(=O)c2nc(S(=O)(=O)Cc3ccccc3C)ncc2Cl)cc1C | > 80 µM (inactive)
63 | Cc1ccc(C(=O)Cn2c(C(=O)/C=C/c3ccccc3)nc3ccccc32)cc1 | 18.3 µM
64 | O=C(C#Cc1ccccc1)c1cccc([N+](=O)[O-])c1 | > 80 µM (inactive)
65 | O=C(/C=C/c1ccc(O)c(O)c1)OCCc1ccccc1 | > 80 µM (inactive)
66 | Cc1ccc(-c2cc(-c3ccc(C)cc3)[n+](-c3ccccc3)c(-c3ccc(C)cc3)c2)cc1 | > 80 µM (inactive)
67 | O=C(CCC(=O)Nc1ccc(Cl)cc1Cl)N/N=C/c1ccc([N+](=O)[O-])o1 | > 80 µM (inactive)
68 | O=C(/C=C/Sc1ccccc1)c1ccccc1 | > 80 µM (inactive)
69 | Cc1cc(C(=O)Cn2ncc(Cl)c(Cl)c2=O)c(C)n1CC(F)(F)F | > 80 µM (inactive)
70 | N#Cc1cc([N+](=O)[O-])c(-n2nnc3ccccc32)c([N+](=O)[O-])c1 | inactive
71 | Cc1ccc(C)c(NC(=O)/C(C#N)=C/c2cn(CC(=O)NCc3ccco3)c3ccccc23)c1 | 6.33 µM
